Data on eleven compounds can be found in patent US5220018A, “Cholecystokinin antagonists” (Merck & Co., Inc., priority 1992, dated 1993).

The term pIC50 denotes the negative decadic logarithm of the IC50, by convention in mol/L.

pIC50: −log10 of the molar value. Read-outs that look alike come from different tables or passages of the source. Non-standard residues stand in square brackets, D forms with d. Residues, ends and D or L forms follow the SMILES beside them. *: point of attachment. sY = N[C@@H](Cc1ccc(OS(=O)(=O)O)cc1)C(=O)O; Cbz = O=C(OCc1ccccc1)*

One assay deals with CCK-B receptors. The following applies: literature, Bock et al. 1989; cited from earlier work.
The next assay concerns CCK receptor. The following applies: literature; cited from earlier work.
The target of a further assay is T1, Gastrin Receptor (Cavia porcellus, UniProt H0VZC5).
T1 construct: from tissue; host or cells: guinea pig gastric mucosal glands (collagenase-dispersed)
T1 sequence (H0VZC5 1-426): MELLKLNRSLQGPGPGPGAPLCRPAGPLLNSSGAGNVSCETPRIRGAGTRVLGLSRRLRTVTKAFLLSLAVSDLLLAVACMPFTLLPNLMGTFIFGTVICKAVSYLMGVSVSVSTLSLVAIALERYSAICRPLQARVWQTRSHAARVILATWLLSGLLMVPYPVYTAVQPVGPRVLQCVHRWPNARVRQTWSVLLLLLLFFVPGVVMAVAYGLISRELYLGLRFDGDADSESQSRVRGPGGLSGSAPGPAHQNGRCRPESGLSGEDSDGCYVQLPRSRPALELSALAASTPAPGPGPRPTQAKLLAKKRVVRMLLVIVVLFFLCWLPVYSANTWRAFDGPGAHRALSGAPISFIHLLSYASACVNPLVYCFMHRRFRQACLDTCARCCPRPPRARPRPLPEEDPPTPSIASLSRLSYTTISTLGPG
In words: Gastrin Receptor Binding in Guinea Pig Gastric Glands. Also noted: species or system guinea pigs. Here is the method: Gastrin antagonist activity of compounds of Formula I is determined using the following assay.
A. Gastrin Receptor Binding in Guinea Pig Gastric Glands
Preparation of guinea pig gastric mucosal glands
Guinea pig gastric mucosal glands were prepared by the procedure of Chang et al., Science 230, 177-179 (1985) with slight modification. Gastric mucosa from guinea pigs (300-500 g body weight, male Hartley) were isolated by scraping with a glass slide after washing stomachs in ice-cold, aerated buffer consisting of the following: 130 mM NaCl, 12 mM NaHCO3, 3 mM NaH2 PO4, 3 mM Na2 HPO4, 3 mM K2 HPO4, 2 mM MgSO4, 1 mM CaCl2, 5 mM glucose and 4 mM L-glutamine, 50 mM HEPES, 0.25 mg/ml bacitracin, 0.10 mg/ml soya bean trypsin inhibitor, 0.1 mg/ml bovine serum albumin, at pH 6.5, and then incubated in a 37° C. shaking water bath for 40 minutes in buffer containing 1 mg/ml collagenase and bubbled with 95% O2 and 5% CO2. The tissues were passed twice through a 5 ml syringe to liberate the gastric glands, and then filtered through Nitex #202 gauge nylon mesh. The filtered glands were centrifuged at 272 g for 5 minutes and washed twice by resuspension in 25 ml buffer and centrifugation.
The washed guinea pig gastric glands prepared as above were resuspended in 25 ml of standard buffer. […] The radioactivity on the filters was measured using a LKB gamma counter.

A further assay has as its target T2, CCK Receptor (Brain) (Cavia porcellus, UniProt H0VZC5).
T2 construct: the cortex was removed and homogenized in 25 mL ice-cold 0.32M sucrose; from tissue; host or cells: guinea pig cerebral cortex, P2 membrane pellet
T2 sequence (H0VZC5 1-426): T1 sequence (H0VZC5 1-426)
In words: CCK Receptor Binding (Brain), inhibition of 125I-CCK-8 binding. More on the design: species or system Male Hartley guinea pigs. The procedure:
2. CCK Receptor Binding (Brain)
CCK-8 sulphated was radiolabelled and the binding was performed according to the description for the pancreas method with minor modifications.
Male Hartley guinea pigs (300-500 g) were sacrificed by decapitation and the cortex was removed and homogenized in 25 mL ice-cold 0.32M sucrose. The homogenates were centrifuged at 1000 g for 10 minutes and the resulting supernatant was recentrifuged at 20,000 g for 20 minutes. […] All assays were run in duplicate. The reaction mixtures were incubated at 25° C. for 2 hours and then the reaction was terminated on Whatman GF/C filters by rapid filtration (Brandell 24 well cell Harvester) with 3×5 ml washes of cold 100 mM NaCl. The radioactivity on the filters was then counted with a LKB gamma counter.
(§1) Drug displacement studies were performed with at least 10 concentrations of compounds of formula 1 and the IC50 values were determined by regression analysis.

The next assay addresses T3, CCK Receptor (Pancreas) (Rattus norvegicus, UniProt P30551).
T3 construct: The whole pancreas was dissected free of fat tissue and was homogenized; from tissue; host or cells: rat whole pancreas, homogenate membranes
T3 sequence (P30551 1-444): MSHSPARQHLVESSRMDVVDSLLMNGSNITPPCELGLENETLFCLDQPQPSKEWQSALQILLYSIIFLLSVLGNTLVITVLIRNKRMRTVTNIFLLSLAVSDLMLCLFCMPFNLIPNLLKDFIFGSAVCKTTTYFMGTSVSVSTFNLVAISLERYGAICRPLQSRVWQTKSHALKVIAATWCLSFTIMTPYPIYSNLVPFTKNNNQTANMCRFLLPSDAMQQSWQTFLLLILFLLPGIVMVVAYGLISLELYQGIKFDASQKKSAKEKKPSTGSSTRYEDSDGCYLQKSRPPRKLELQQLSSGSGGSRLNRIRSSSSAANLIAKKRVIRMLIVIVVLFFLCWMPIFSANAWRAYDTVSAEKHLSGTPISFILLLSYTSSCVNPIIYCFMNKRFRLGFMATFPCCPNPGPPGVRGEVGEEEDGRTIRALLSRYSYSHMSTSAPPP
In words: biochemical. Type of assay: binding, Male Sprague-Dawley rats. Here is the method: 1. CCK Receptor Binding (Pancreas)
CCK-8 sulphated was radiolabelled with ^125 I-Bolton Hunter reagent (2000 Ci/mmole). Receptor binding was performed according to Chang and Lotti (Proc. Natl. Acad. Sci. 83, 4923-4926, 1986) with minor modifications.
Male Sprague-Dawley rats (150-200 g) were sacrificed by decapitation. The whole pancreas was dissected free of fat tissue and was homogenized in 25 volumes of ice-cold 10 mM Hepes buffer with 0.1% soya bean trypsin inhibitor (pH 7.4 at 25° C.) with a Kinematica Polytron. The homogenates were centrifuged at 47,800 g for 10 min. Pellets were resuspended in 10 volumes of binding assay buffer (20 mM Hepes, 1 mM EGTA, 5 mM MgCl2, 150 mM NaCl, bacitracin 0.25 mg/ml, soya bean trypsin inhibitor 0.1 mg/ml, and bovine serum albumin 2 mg/ml, pH 6.5 at 25° C.) using a teflon homogenizer, 15 strokes at 500 rpm. The homogenate was further diluted in binding assay buffer to give a final concentration of 0.5 mg original wet weight/1 ml buffer. […] All assays were run in duplicate. The reaction mixtures were incubated at 25° C. for 2 hours and the reaction terminated by rapid filtration (Brandell 24 well cell harvester) over Whatman GF/C filters, washing 3×4 mls with ice-cold 100 mM NaCl. The radioactivity on the filters was counted with a LKB gamma counter.
as §1

The next assay relates to gastrin. The following applies: in vitro, literature; cited from earlier work.
[1] abbreviates: rat pancreas membranes, 125I-CCK-8 50 pM, 25° C., 2 hours, read-out: IC50, 125I-CCK Pancreas.
Setting [2] is: guinea pig cortex membranes, 125I-CCK-8 50 pM, 25° C., 2 hours, read-out: IC50, 125I-CCK Brain.

`Cc1cccc(NC(=O)N[C@@H]2N=C(c3ccccc3)c3ccccc3N(C)C2=O)c1` [(R)-N-(2,3-dihydro-1-methyl-2-oxo-5-phenyl-1H-1,4-benzodiazepin-3-yl)-N^1-(3-methylphenyl) urea]: the “CCK-B receptor antagonism in words” value in the assay with CCK-B receptors is “potent and selective antagonist of CCK-B receptors”.
Take `CSCC[C@H](NC(=O)[C@H](Cc1ccc(OS(=O)(=O)O)cc1)NC(=O)OCc1ccccc1)C(=O)NCC(=O)N[C@@H](Cc1c[nH]c2ccccc12)C(=O)N[C@@H](CCSC)C(=O)N[C@@H](CC(=O)O)C(N)=O` [Cbz-Tyr(SO3 H)-Met-Gly-Trp-Met-Asp-NH2] (Cbz-[sY]MGWMD-NH2): the “CCK receptor activity in words” value with CCK receptor is “partial agonist”.
Turning to `CN1C(=O)[C@H](NC(=O)Nc2cccc(-c3nnn[nH]3)c2)N=C(c2ccccc2)c2ccccc21` [Example 1, N-{1,3-Dihydro-1-methyl-2-oxo-5-phenyl-1H-1,4-benzodiazepin-3-yl}-N'-{[3-(1H-tetrazol-5-yl)phenyl]urea}], the pIC50 on Gastrin Receptor was 9.15; at CCK Receptor (Brain) it was 9.00; at CCK Receptor (Pancreas) (setting [1]), 6.40.
`CC(C)CN1C(=O)[C@H](NC(=O)Nc2cccc(-c3nnn[nH]3)c2)N=C(c2ccccc2)c2ccccc21` [Example 2, N-{1,3-Dihydro-1-[2-methyl]propyl-2-oxo-5-phenyl-1H-1,4-benzodiazepin-3-yl}-N'-{[3-(1H-tetrazol-5-yl)phenyl]urea}]: the pIC50 at Gastrin Receptor (guinea pig gastric glands, method: 125I-gastrin 0.1 nM, 25° C., 30 minutes, read-out: IC50, 125I-CCK Gastric Glands) is 9.62; at CCK Receptor (Brain) (setting [2]), 10.00; at CCK Receptor (Pancreas) (setting [1]), 5.85.
In the case of `CN1C(=O)[C@H](NC(=O)Nc2cccc(-c3nnn(C)n3)c2)N=C(c2ccccc2)c2ccccc21` [Example 33, N-{1,3-Dihydro-1-methyl-2-oxo-5-phenyl-1H-1,4-benzodiazepin-3-yl}-N'-{[3-(2-methyltetrazol-5-yl)phenyl]urea}], the figures for the pIC50 at CCK Receptor (Brain) (setting [2]) and on CCK Receptor (Pancreas) were 7.68 and 5.80, respectively.
For the compound `CN1C(=O)[C@H](NC(=O)Nc2cccc(-c3noc(=O)[nH]3)c2)N=C(c2ccccc2)c2ccccc21` [Example 34, N-{1,3-Dihydro-1-methyl-2-oxo-5-phenyl-1H-1,4-benzodiazepin-3-yl}-N'-{[3-(1,2,4-oxadiazol-5-one)phenyl]urea}], the results for the pIC50 on CCK Receptor (Brain) (setting [2]) and at CCK Receptor (Pancreas) (setting [1]) were 9.72 and 5.96, respectively.
Turning to `O=C(Nc1cccc(-c2noc(=O)[nH]2)c1)N[C@@H]1N=C(c2ccccc2)c2ccccc2N(CC2CC2)C1=O` [Example 35, N-{1,3-Dihydro-1-cyclopropylmethyl-2-oxo-5-phenyl-1H-1,4-benzodiazepin-3-yl}-N'-{[3-(1,2,4-oxadiazol-5-one)phenyl]urea}], the results for the pIC50 at CCK Receptor (Brain) (setting [2]) and on CCK Receptor (Pancreas) (setting [1]) were 10.05 and 6.72, respectively.
Turning to `CN1C(=O)[C@H](NC(=O)Nc2cccc(C3=NOS(=O)N3)c2)N=C(c2ccccc2)c2ccccc21` (some centres unmarked) [Example 36, N-{1,3-Dihydro-1-methyl-2-oxo-5-phenyl-1H-1,4-benzodiazepin-3-yl}-N'-{[3-(1,2,4-oxadiathiazol-5-one)phenyl]urea}], the values for the pIC50 on CCK Receptor (Brain) (setting [2]) and at CCK Receptor (Pancreas) (setting [1]) were 7.71 and 5.82, respectively.
As for `CN1C(=O)[C@H](NC(=O)Nc2cccc(-c3n[nH]c(=O)o3)c2)N=C(c2ccccc2)c2ccccc21` [Example 37], the results for the negative logarithm of the IC50 (pIC50) on CCK Receptor (Brain) (setting [2]) and at CCK Receptor (Pancreas) (setting [1]) were 8.44 and 5.61, respectively.
Turning to `CCCC(=O)Nc1nc2c(ncn2[C@@H]2O[C@@H]3COP(=O)(O)O[C@H]3[C@H]2OC(=O)CCC)c(=O)[nH]1` [dibutyryl cyclic GMP], the “CCK receptor activity in words” value with CCK receptor is “the most potent”.
Take `CCCN(CCC)C(=O)C(CCC(=O)O)NC(=O)c1ccccc1` (centres unmarked) [proglumide]: the “gastrin antagonism in words” value in the assay with gastrin is “very weak in vitro antagonists”.
